Where a name gives a salt, the structure may show the parent alone. Each block holds one compound with its values, some of them ahead of it.
Columns and labels:
Assay type in all cases: physicochemical
[1] = solubility in solvents; settings: for solubility in acetone: solvent acetone
[2] = TGA (thermogravimetric analysis); settings: [4a]·i-PrOH·2 H2O
Experimental: Exemplary embodiments of the technology are illustrated by the following non-limiting Examples, in which the reactions were carried out under air or nitrogen as indicated using commercially available reagents as received unless otherwise specified. NMR spectra were recorded on Bruker AVANCE 300, 360 or 500 MHz instruments relative to residual solvent resonances (^1H, ^13C), an external reference (BF3·OEt2 for ^11B) or by indirect detection (^15N by HMBC, in ppm relative to NH3). Melting points were determined using an Omega Engineering Model 199 instrument and are uncorrected. Mass spectra were recorded on a Q-TOF II instrument by MicroMass using electrospray ionization. TGA were recorded between room temperature and 600° C. Elemental analysis for C, H and N were obtained by Canadian Microanalytical Services, Delta, B.C., Canada or Guelph Chemical Laboratories Ltd., Guelph, ON, Canada.

[3] = CV (cyclic voltammetry) in dry CH3CN; settings: 0.1 M NBu^n4^+PF6^−
Experimental: Mauve powder. Yield: 92% (based on formula). Mp. dec. 315° C. ^1H NMR (300 MHz, dmso-d6, 298 K): δ 80.0 (1H relative int., v1/2=450 Hz), 77.9 (1H, v1/2=50 Hz), 53.1 (2H, v1/2=480 Hz), 46.8 (2H, v1/2=450 Hz), 39.4 (2H and 1H overlap, broad and sharp resonances), 21.8 and 19.5 (2H each, broad and overlapping), 13.0 (1H, v1/2=400 Hz), −2.0 (1H, v1/2=350 Hz), −4.2 (1H, v1/2=350 Hz), […] (2H, v1/2=450 Hz), −8.6 (1H, v1/2=40 Hz), −28.7 (1H, v1/2=50 Hz), −52.7 (1H, v1/2=450 Hz), −72.8 (v1/2=500 Hz). NMR (360 MHz, dmso-d6, 373 K): δ 18.49 (6H, br s, 4′- or 5′-pzH, v1/2=85 Hz), 17.00 (6H, br s, 3,5-pyH, v1/2=65 Hz), 7.88 (6H, br s, 4′- or 5′-pzH, v1/2=80 Hz), 4.18 (3H, br s, 4-pyH, v1/2=30 Hz), −4.25 (2H, br s, BH, v1/2=320 Hz). […] Fc/Fc^+); Co(NO3)2 under the same conditions: E1/2 (ox)=+1.8 V (vs. Fc/Fc^+). μeff=4.7 BM (Evans' method). A mononuclear 1:1 complex [9a]of cage [4a] with Co^2+ has been characterized by X-ray crystallography. A Co(OH2)3^2+ unit is bound up in the tris(pyrazolyl) cap.
A blue-green powder was obtained from reaction of Cu(NO3)2(H2O)2.5 with [4a] in a 1:1 ratio. The ^1H NMR spectrum of this product is very similar to that of [11c′], obtained as one product in the reaction of Cu(O3SCF3)2 with [4a] in 3:1 ratio. […]

- solubility in halocarbons ([1]; CH2Cl2 and CHCl3): slightly soluble
- solubility in alcohols ([1]; MeOH, EtOH, i-PrOH): slightly soluble
- solubility in pure water ([1]; pure water): very limited solubility
- solubility in DMSO ([1]; solvent DMSO): very soluble
- solubility in THF ([1]; solvent THF): moderately soluble
- solubility in acetone [1]: very soluble
- solubility in acidic water ([1]; solvent acidic water): moderately soluble
- solubility in ethyl acetate ([1]; solvent ethyl acetate): moderately soluble
- onset of decomposition (TGA) [2]: > 450 °C
Compound: c1cc2nc(c1)-c1ccn(n1)B1n3ccc(n3)-c3cccc(n3)-c3ccn(n3)B(n3ccc-2n3)n2ccc(n2)-c2cccc(n2)-c2ccn1n2 [4a, Tris(2,6-pyrazolylpyridino)diborate dipotassium salt]

- solubility in dmso-d6 ([1]; dmso-d6, mild heating): dissolved with mild heating in dmso-d6
- solubility in acetone [1]: would not dissolve in acetone
Compound: c1cc2cc(c1)-c1ncn(n1)B1n3cnc(n3)-c3cccc(c3)-c3ncn(n3)B(n3cnc-2n3)n2cnc(n2)-c2cccc(c2)-c2ncn1n2 [7a, tris(2,6-di(1′,2′,4′-triazol-3′ yl)benzene)diborate dipotassium salt]

- solubility in benzene ([1]; solvent benzene): somewhat soluble
Compound: Tris(2,6-pyrazolyl-4-(4′-methoxybenzylthiolato)pyridino)diborate dipotassium salt [4t]

The remaining lines, values behind:

Compound: CC1(C)c2ccn(n2)Bn2ccc(n2)C(C)(C)c2ccn(n2)Bn2ccc1n2 [8′a, Bis(2,2-dipyrazolylpropane)diborate dipotassium salt]
- solubility in diethyl ether ([1]; diethyl ether, relative to the corresponding cage [7′a]): notably less soluble

Compound: O=[N+]([O-])[O-].O=[N+]([O-])[O-].[Co+2] [Co(NO3)2]
- E1/2 (ox) ([3]; 250 mV s^−1): +1.8 V (vs. Fc/Fc^+)

Compound: O=[N+]([O-])[O-].O=[N+]([O-])[O-].[Cu+2] [Cu(NO3)2]
- E1/2 (red) [3]: −0.8 V (vs. Fc/Fc^+)
